Drawing on patent US9751858B2, “3-heteroaroylamino-propionic acid derivatives and their use as pharmaceuticals” (SANOFI, priority 2011, dated 2017), this text covers IC50 for 26 compounds.

The assay concerns the target T1, Recombinant human cathepsin A (Homo sapiens, UniProt P10619).
T1 construct: Recombinant human cathepsin A (residues 29-480, with a C-terminal 10-His tag); 10-His (C); purchased R&D Systems 1049-SE
T1 sequence (P10619 29-326 limits assumed): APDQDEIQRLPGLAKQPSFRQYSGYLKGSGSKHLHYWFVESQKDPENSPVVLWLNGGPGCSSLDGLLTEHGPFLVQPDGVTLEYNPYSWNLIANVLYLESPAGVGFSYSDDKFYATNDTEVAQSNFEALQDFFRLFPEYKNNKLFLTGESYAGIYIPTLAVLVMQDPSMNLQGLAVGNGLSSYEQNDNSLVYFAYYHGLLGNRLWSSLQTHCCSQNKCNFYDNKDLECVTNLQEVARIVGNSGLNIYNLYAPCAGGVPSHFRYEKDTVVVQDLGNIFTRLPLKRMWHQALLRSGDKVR
T1 sequence (P10619 327-480 limits assumed): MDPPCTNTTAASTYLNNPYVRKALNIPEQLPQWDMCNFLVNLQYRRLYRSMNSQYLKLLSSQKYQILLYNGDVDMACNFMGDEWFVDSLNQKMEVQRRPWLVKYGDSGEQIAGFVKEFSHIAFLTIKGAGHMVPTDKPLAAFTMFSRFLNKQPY
Nature of the assay: Cathepsin A inhibitory activity. In kind it is biochemical. Conditions: activated recombinant human cathepsin A 833 ng/ml, Bodipy FL-labeled bradykinin 2 μM, pH 5.5, 15 min room temperature. In outline:
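Cathepsin A activated by cathepsin L (15 min, 37 °C, pH 6.0), then preincubated 15 min at room temperature with compound in 25 mM MES pH 5.5, 5 mM DTT. Bodipy FL-bradykinin cleavage ran 15 min at room temperature; substrate and product separated by microfluidic capillary electrophoresis, turnover from peak areas.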
For the compound `O=C(O)C[C@H](NC(=O)c1nc(-c2ccccc2)n(-c2ccccc2)n1)c1cccc(Cl)c1` [Example 104, (S)-3-(3-Chloro-phenyl)-3-[(1,5-diphenyl-1H-[1,2,4]triazole-3-carbonyl)-amino]-propionic acid], the 50% inhibitory concentration (IC50) – broadly, the concentration that gives 50% inhibition – was 128 nM.

Take `Cc1oc(-c2ccccc2)nc1C(=O)N[C@@H](CC(=O)O)c1ccccc1F` [Example 7, (S)-3-(2-Fluoro-phenyl)-3-[(5-methyl-2-phenyl-oxazole-4-carbonyl)-amino]-propionic acid]: the half-maximal inhibitory concentration (IC50) was 4130 nM.

`Cc1cccc([C@H](CC(=O)O)NC(=O)c2noc(-c3ccccc3F)n2)c1` [Example 16, (S)-3-{[5-(2-Fluoro-phenyl)-[1,2,4]oxadiazole-3-carbonyl]-amino}-3-m-tolyl-propionic acid]: the half-maximal inhibitory concentration (IC50) was above 10000 nM.

For the compound `CCCS(=O)(=O)Nc1cn(C)nc1C(=O)N[C@@H](CC(=O)O)c1ccccc1C` [Example 64, (S)-3-{[1-Methyl-4-(propane-1-sulfonylamino)-1H-pyrazole-3-carbonyl]-amino}-3-o-tolyl-propionic acid], the concentration for half-maximal inhibition (IC50) was above 10000 nM.

As to `Cc1ccccc1[C@H](CC(=O)O)NC(=O)c1cc(-c2ccc(Cl)cc2)on1` [Example 26, (S)-3-{[5-(4-Chloro-phenyl)-isoxazole-3-carbonyl]amino}-3-o-tolyl-propionic acid], the IC50 is above 10000 nM.

`CC(C)c1oc(-c2ccccc2)nc1C(=O)N[C@@H](CC(=O)O)c1ccc(F)cc1` [Example 48, (S)-3-(4-Fluoro-phenyl)-3-[(5-isopropyl-2-phenyl-oxazole-4-carbonyl)-amino]-propionic acid]: the 50% inhibitory concentration (IC50) came to 1820 nM.

With `CCc1nc(C(=O)N[C@@H](CC(=O)O)c2ccccc2C)nn1-c1c(Cl)cccc1Cl` [Example 108, (S)-3-{[1-(2,6-Dichloro-phenyl)-5-ethyl-1H-[1,2,4]triazole-3-carbonyl]-amino}-3-o-tolyl-propionic acid], the IC50 is 350 nM.

On to `CCCc1nc(C(=O)N[C@@H](CC(=O)O)c2ccc(C)cc2)nn1-c1ccccc1Cl` [Example 88, (S)-3-{[1-(2-Chloro-phenyl)-5-propyl-1H-[1,2,4]triazole-3-carbonyl]-amino}-3-p-tolyl-propionic acid], for which the IC50 is 335 nM.

For `Cc1nc(C(=O)N[C@@H](CC(=O)O)c2ccccc2)nn1-c1ccccc1Cl` [Example 33, (S)-3-{[1-(2-Chloro-phenyl)-5-methyl-1H-[1,2,4]triazole-3-carbonyl]-amino}-3-phenyl-propionic acid], the half-maximal inhibitory concentration (IC50) stood at 1030 nM.

Turning to `CCc1nc(C(=O)N[C@@H](CC(=O)O)c2ccc(C)cc2)nn1-c1c(Cl)cccc1Cl` [Example 107, (S)-3-{[1-(2,6-Dichloro-phenyl)-5-ethyl-1H-[1,2,4]triazole-3-carbonyl]-amino}-3-p-tolyl-propionic acid], the IC50 amounted to 545 nM.

Regarding `Cc1ccccc1[C@H](CC(=O)O)NC(=O)c1nc(-c2ccccc2)oc1C(F)(F)F` [Example 77, (S)-3-[(2-Phenyl-5-trifluoromethyl-oxazole-4-carbonyl)-amino]-3-o-tolyl-propionic acid], the IC50 is 1910 nM.

As for `COc1cccc([C@H](CC(=O)O)NC(=O)c2nc(-c3ccccc3)oc2C(C)C)c1` [Example 65, (S)-3-[(5-Isopropyl-2-phenyl-oxazole-4-carbonyl)-amino]-3-(3-methoxy-phenyl)-propionic acid], the half-maximal inhibitory concentration (IC50) is above 10000 nM.

For `CC(C)c1oc(-c2ccccc2)nc1C(=O)N[C@@H](CC(=O)O)c1cccc(Cl)c1Cl` [Example 103, (S)-3-(2,3-Dichloro-phenyl)-3-[(5-isopropyl-2-phenyl-oxazole-4-carbonyl)-amino]-propionic acid], the half-inhibitory concentration (IC50) was 598 nM.

In the case of `Cc1oc(-c2ccccc2F)nc1C(=O)N[C@@H](CC(=O)O)c1cccc(F)c1` [Example 36, (S)-3-(3-Fluoro-phenyl)-3-{[2-(2-fluoro-phenyl)-5-methyl-oxazole-4-carbonyl]-amino}-propionic acid], the half-maximal inhibitory concentration (IC50) worked out at 198 nM.

Take `Cc1oc(-c2ccccc2F)nc1C(=O)N[C@@H](CC(=O)O)c1ccccc1F` [Example 35, (S)-3-(2-Fluoro-phenyl)-3-{[2-(2-fluoro-phenyl)-5-methyl-oxazole-4-carbonyl]-amino}-propionic acid]: the IC50 worked out at 5140 nM.

For the compound `Cc1oc(-c2ccccc2F)nc1C(=O)N[C@@H](CC(=O)O)c1cccc(Cl)c1Cl` [Example 94, (S)-3-(2,3-Dichloro-phenyl)-3-{[2-(2-fluoro-phenyl)-5-methyl-oxazole-4-carbonyl]-amino}-propionic acid], the IC50 worked out at 514 nM.

Take `Cc1oc(-c2ccccc2)nc1C(=O)NC(CC(=O)O)C1CCCCC1` (centres unmarked) [Example 3, 3-Cyclohexyl-3-[(5-methyl-2-phenyl-oxazole-4-carbonyl)-amino]-propionic acid]: the half-inhibitory concentration (IC50) came out at 4970 nM.

With `O=C(O)C[C@H](NC(=O)CCc1nc(-c2ccccc2F)no1)c1ccccc1` [Example 31, (S)-3-{3-[3-(2-Fluoro-phenyl)-[1,2,4]oxadiazol-5-yl]-propionylamino}-3-phenyl-propionic acid], the IC50 is above 10000 nM.

Consider `Cc1ccccc1[C@H](CC(=O)O)NC(=O)c1nc(C)n(-c2ccccc2Cl)n1` [Example 57, (S)-3-{[1-(2-Chloro-phenyl)-5-methyl-1H-[1,2,4]triazole-3-carbonyl]-amino}-3-o-tolyl-propionic acid], for which the IC50 was found to be 261 nM.

As for `Cn1cc(NS(=O)(=O)CC2CCCCC2)c(C(=O)N[C@@H](CC(=O)O)c2ccccc2)n1` [Example 109, (S)-3-[(4-Cyclohexylmethanesulfonylamino-1-methyl-1H-pyrazole-3-carbonyl)-amino]-3-phenyl-propionic acid], the IC50 was above 10000 nM.

In the case of `O=C(O)C[C@@H](Cc1ccccc1)NC(=O)c1nc(-c2ccccc2F)no1` [Example 11, (R)-3-{[3-(2-Fluoro-phenyl)-[1,2,4]oxadiazole-5-carbonyl]-amino}-4-phenyl-butyric acid], the IC50 amounted to 4890 nM.

Consider `O=C(O)C[C@@H](Cc1ccccc1)NC(=O)c1noc(-c2ccccc2F)n1` [Example 13, (R)-3-{[5-(2-Fluoro-phenyl)-[1,2,4]oxadiazole-3-carbonyl]-amino}-4-phenyl-butyric acid], for which the IC50 was found to be 316 nM.

`CCCC1CCCCN1C(=O)c1cc(C(=O)N[C@@H](CC(=O)O)c2ccc(C)cc2)nn1CC` (stereo partly drawn) [Example 115, (S)-3-{[1-Ethyl-5-(2-propyl-piperidine-1-carbonyl)-1H-pyrazole-3-carbonyl]-amino}-3-p-tolyl-propionic acid]: the IC50 is 2500 nM.

Turning to `Cc1oc(-c2ccccc2)nc1C(=O)N[C@@H](CC(=O)O)c1ccccc1C(F)(F)F` [Example 78, (S)-3-[(5-Methyl-2-phenyl-oxazole-4-carbonyl)-amino]-3-(2-trifluoromethyl-phenyl)-propionic acid], the 50% inhibitory concentration (IC50) came to 8470 nM.

With `Cc1ccccc1[C@H](CC(=O)O)NC(=O)c1nn(Cc2ccccc2)c2ccccc12` [Example 72, (S)-3-[(1-Benzyl-1H-indazole-3-carbonyl)-amino]-3-o-tolyl-propionic acid], the IC50 is 171 nM.

On to `Cc1ccccc1[C@H](CC(=O)O)NC(=O)c1nc(C2CC2)n(-c2ccccc2Cl)n1` [Example 82, (S)-3-{[1-(2-Chloro-phenyl)-5-cyclopropyl-1H-[1,2,4]triazole-3-carbonyl]-amino}-3-o-tolyl-propionic acid], for which the half-inhibitory concentration (IC50) was above 10000 nM.
